In the supplement of paper PMC11208160:

Test: recombinant barcode read abundance after kanamycin selection (control-corrected) (log10(CPM+1)); higher = more efficient recombination; sequences stand for … in AGTGCAGAGAAAATCGGCCAGTTTTCTCTGCCTGCAGTCCGCATGCCGT…AGATTTATGCAGCGGACTGCCTTTCTCCCAAAGTGATAAACCGGACAGTATCATGGACCGGTTTTCCCGGTAATCCGTATTTGCAAGGTTGGTTTCACT; site = the 11-nt target
Outline: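 Targets were screened in pooled form in E. coli against IS621 bridge RNA target-binding loops. Recombination efficiency is based on barcode counts at recombinant junctions in counts per million, averaged and corrected for the control. Numbers are shown as log10(CPM+1), with duplicate plates on chloramphenicol/ampicillin LB agar (control) or chloramphenicol/ampicillin/kanamycin with 0.1 mM IPTG.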
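Further: IS621 recombinase and bridge RNA in Escherichia coli cells.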

Sequence	recombinant barcode read abundance (log10)
TAGCAGACTTGGGTTCTAACCTGTTGCCT (site TAGCGGACTAG)	0.0243
TAGCAGACTTGGGTTCTAACCTGTTGCCT (site TAGCTGACTAG)	0.0224
TAGCATACTTGGGTTCTAACCTGTTGCCG (site TAGCATACTAG)	0.271
TAGCATACTTGGGTTCTAACCTGTTGCCG (site TAGCATACTCG)	0.861
TAGCATACTTGGGTTCTAACCTGTTGCCG (site TAGCATACTGG)	0.06
TAGCATACTTGGGTTCTAACCTGTTGCCG (site TAGCATACTTG)	0.198
TAGCCACCTTGGGTTCTAACCTGTTGCCT (site AAGCCACCTAG)	0.151
TAGCCACCTTGGGTTCTAACCTGTTGCCT (site CAGCCACCTAG)	0.917
TAGCCACCTTGGGTTCTAACCTGTTGCCT (site GAGCCACCTAG)	0.0875
TAGCCACCTTGGGTTCTAACCTGTTGCCT (site TAGCCACCTAG)	1.94
TAGCCGACTTGGGTTCTAACCTGTTGCCT (site TAGCAGACTAG)	0.181
TAGCCGACTTGGGTTCTAACCTGTTGCCT (site TAGCCGACTAG)	1.59
TAGCCGACTTGGGTTCTAACCTGTTGCCT (site TAGCGGACTAG)	0.251
TAGCCGACTTGGGTTCTAACCTGTTGCCT (site TAGCTGACTAG)	0.0182
TAGCCGACTTGGGTTCTAACCTGTTGCTT (site TAGACGACTAA)	0.131
TAGCCGACTTGGGTTCTAACCTGTTGCTT (site TAGCCGACTAA)	0.999
TAGCCGACTTGGGTTCTAACCTGTTGCTT (site TAGGCGACTAA)	0.309
TAGCCGACTTGGGTTCTAACCTGTTGCTT (site TAGTCGACTAA)	0.242
TAGCCGTCTTGGGTTCTAACCTGTTGCAC (site TAGACGACTGT)	0.0911
TAGCCGTCTTGGGTTCTAACCTGTTGCAC (site TAGCCGTCTGT)	1.4
TAGCCTTCTTGGGTTCTAACCTGTTGCTG (site TAGCCTTCTCA)	1.02
TAGCCTTCTTGGGTTCTAACCTGTTGCTG (site TAGCCTTCTTA)	0.252
TAGCTAGCTTGGGTTCTAACCTGTTGCGT (site GCTTACCCTTA)	0.0618
TAGCTAGCTTGGGTTCTAACCTGTTGCGT (site TAGCTAGCTAC)	1.62
TAGCTCACTTGGGTTCTAACCTGTTGCAT (site TAGATCACTAT)	0.0546
TAGCTCACTTGGGTTCTAACCTGTTGCAT (site TAGCTCACTAT)	1.17

Sequence	recombinant barcode read abundance (log10)
TAGCTCACTTGGGTTCTAACCTGTTGCAT (site TAGGTCACTAT)	0.181
TAGCTCACTTGGGTTCTAACCTGTTGCAT (site TAGTTCACTAT)	0.307
TAGGAACCTTGGGTTCTAACCTGTTGCCT (site AAGGAACCTAG)	0.7
TAGGAACCTTGGGTTCTAACCTGTTGCCT (site CAGGAACCTAG)	0.649
TAGGAACCTTGGGTTCTAACCTGTTGCCT (site GAGGAACCTAG)	0.0651
TAGGAACCTTGGGTTCTAACCTGTTGCCT (site TAGGAACCTAG)	2.63
TAGGACACTTGGGTTCTAACCTGTTGCCA (site TAGGACACTTG)	1.86
TAGGACACTTGGGTTCTAACCTGTTGCCA (site TCGGATACTTG)	0.198
TAGGACACTTGGGTTCTAACCTGTTGCGT (site TAGGAAACTAC)	0.378
TAGGACACTTGGGTTCTAACCTGTTGCGT (site TAGGACACTAC)	2.8
TAGGACACTTGGGTTCTAACCTGTTGCGT (site TAGGAGACTAC)	0.1
TAGGACACTTGGGTTCTAACCTGTTGCGT (site TAGGATACTAC)	0.295
TAGGACGCTTGGGTTCTAACCTGTTGCCT (site TAAGACGCTAG)	1.76
TAGGACGCTTGGGTTCTAACCTGTTGCCT (site TACGACGCTAG)	0.114
TAGGACGCTTGGGTTCTAACCTGTTGCCT (site TAGGACGCTAG)	2.53
TAGGACGCTTGGGTTCTAACCTGTTGCCT (site TATGACGCTAG)	0.286
TAGGATGCTTGGGTTCTAACCTGTTGCGT (site TAGGATGCTAC)	2.66
TAGGATGCTTGGGTTCTAACCTGTTGCGT (site TAGGATTCTAC)	0.248
TAGGCCACTTGGGTTCTAACCTGTTGCAT (site TAGGCCACTAA)	0.071
TAGGCCACTTGGGTTCTAACCTGTTGCAT (site TAGGCCACTAC)	0.0809
TAGGCCACTTGGGTTCTAACCTGTTGCAT (site TAGGCCACTAG)	0.294
TAGGCCACTTGGGTTCTAACCTGTTGCAT (site TAGGCCACTAT)	1.39
TAGGCCACTTGGGTTCTAACCTGTTGCGT (site TAGGCCACTAA)	0.522
TAGGCCACTTGGGTTCTAACCTGTTGCGT (site TAGGCCACTAC)	2.85
TAGGCCACTTGGGTTCTAACCTGTTGCGT (site TAGGCCACTAG)	0.0599
TAGGCCACTTGGGTTCTAACCTGTTGCGT (site TAGGCCACTAT)	1.7

Sequence	recombinant barcode read abundance (log10)
TAGGCGCCTTGGGTTCTAACCTGTTGCTT (site TAGGCGCCTAA)	1.03
TAGGCGCCTTGGGTTCTAACCTGTTGCTT (site TAGGCGCCTAC)	0.263
TAGGCGCCTTGGGTTCTAACCTGTTGCTT (site TAGGCGCCTAG)	0.193
TAGGCGCCTTGGGTTCTAACCTGTTGCTT (site TAGGCGCCTAT)	0.0771
TAGGCTCCTTGGGTTCTAACCTGTTGCAT (site TAGGCTCCTAT)	1.19
TAGGCTCCTTGGGTTCTAACCTGTTGCAT (site TAGGCTCCTCT)	0.0701
TAGGCTCCTTGGGTTCTAACCTGTTGCAT (site TAGGCTCCTGT)	0.0892
TAGGCTCCTTGGGTTCTAACCTGTTGCAT (site TAGGCTCCTTT)	0.0761
TAGGGCACTTGGGTTCTAACCTGTTGCTG (site TAGGGCACTCA)	2.1
TAGGGCACTTGGGTTCTAACCTGTTGCTG (site TAGGGCACTCG)	0.888
TAGGGCGCTTGGGTTCTAACCTGTTGCCT (site TAAGGAGCTAG)	0.204
TAGGGCGCTTGGGTTCTAACCTGTTGCCT (site TAGGGCGCTAG)	1.01
TAGGTGCCTTGGGTTCTAACCTGTTGCAT (site TAGGTACCTAT)	1.21
TAGGTGCCTTGGGTTCTAACCTGTTGCAT (site TAGGTCCCTAT)	0.0424
TAGGTGCCTTGGGTTCTAACCTGTTGCAT (site TAGGTGCCTAT)	1.79
TAGGTGCCTTGGGTTCTAACCTGTTGCAT (site TAGGTTCCTAT)	0.167
TAGGTGCCTTGGGTTCTAACCTGTTGCGG (site TAGGTGACTCC)	0.134
TAGGTGCCTTGGGTTCTAACCTGTTGCGG (site TAGGTGCCTCC)	2.99
TAGTAAGCTTGGGTTCTAACCTGTTGCTG (site TAGTAAGCTCA)	0.921
TAGTAAGCTTGGGTTCTAACCTGTTGCTG (site TAGTACGCTCT)	0.142
TAGTACACTTGGGTTCTAACCTGTTGCAC (site ACCATGTCTCC)	0.0598
TAGTACACTTGGGTTCTAACCTGTTGCAC (site TAGTACACTGT)	1.55
TAGTACTCTTGGGTTCTAACCTGTTGCTA (site TAGTACTCTAA)	0.0398
TAGTACTCTTGGGTTCTAACCTGTTGCTA (site TAGTACTCTCA)	0.0859
TAGTACTCTTGGGTTCTAACCTGTTGCTA (site TAGTACTCTGA)	0.164
